Data from ChEMBL document CHEMBL4507327 (2021).

Columns and labels:
[1] = target: Non-receptor tyrosine-protein kinase TNK1 (Homo sapiens, UniProt Q13470); assay: Tnk1(TNK1LGY1) Takeda global kinase panel
[2] = target: Cyclin-dependent kinase 1 (Homo sapiens, UniProt P06493); assay: CDC2 [CDK1(CDK1CGS1)] Takeda global kinase panel
[3] = target: Kappa-type opioid receptor (Homo sapiens) (UniProt P41145); conditions: Compound concentration 10.0 uM
[4] = target: Ribosomal protein S6 kinase alpha-5 (Homo sapiens, UniProt O75582); assay: MSK1(R6A5LGY1) Takeda global kinase panel
[5] = target: Vascular endothelial growth factor receptor 1 (Homo sapiens, UniProt P17948); assay: FLT1(FLT1LGC5) Takeda global kinase panel
[6] = target: Serine/threonine-protein kinase greatwall (Homo sapiens, UniProt Q96GX5); assay: MASTL(MASLLGE1) Takeda global kinase panel
[7] = target: Tyrosine-protein kinase ABL2 (Homo sapiens, UniProt P42684); assay: Arg(ABL2LGF1) Takeda global kinase panel
[8] = target: MAP/microtubule affinity-regulating kinase 3 (Homo sapiens, UniProt P27448); assay: MARK3(MAR3LGO5) Takeda global kinase panel
[9] = target: Dual specificity protein kinase CLK2 (Homo sapiens, UniProt P49760); assay: CLK2(CLK2LGF1) Takeda global kinase panel
[10] = target: Sigma non-opioid intracellular receptor 1 (Homo sapiens) (UniProt Q99720); assay: Sigma 1 Eurofins-Panlabs radioligand binding assay; design: ligand concentration 15 nM; conditions: Compound concentration 10.0 uM
Ephrin type-A receptor 1 = Ephrin type-A receptor 1 (Homo sapiens, UniProt P21709); assay: EphA1(EPA1LGY1) Takeda global kinase panel
[11] = target: Serine/threonine-protein kinase TAO3 (Homo sapiens, UniProt Q9H2K8); assay: TAO3(TAO3LGY1) Takeda global kinase panel
[12] = target: G protein-coupled receptor kinase 4 (Homo sapiens, UniProt P32298); assay: GRK4(GRK4LGRI) Takeda global kinase panel
[13] = target: Serine/threonine-protein kinase PAK 4 (Homo sapiens, UniProt O96013); assay: PAK4(PAK4CGY1) Takeda global kinase panel
SRSF protein kinase 3 = SRSF protein kinase 3 (Homo sapiens, UniProt Q9UPE1); assay: MSSK1(SRP3MHRL) Takeda global kinase panel
[14] = target: Interleukin-1 receptor type 1 (Homo sapiens) (UniProt P14778); assay: Interleukin IL-1 R1 Eurofins-Panlabs radioligand binding assay; design: ligand concentration 0.1 nM; conditions: Compound concentration 10.0 uM
[15] = target: Alpha-1B adrenergic receptor (Homo sapiens) (UniProt P35368); assay: Adrenergic alpha1B Eurofins-Panlabs radioligand binding assay; design: ligand concentration 0.2 nM; conditions: Compound concentration 10.0 uM
[16] = target: Dual specificity protein kinase CLK4 (Homo sapiens, UniProt Q9HAZ1); assay: CLK4(CLK4IGF1) Takeda global kinase panel
Activin receptor type-2A = Activin receptor type-2A (Homo sapiens, UniProt P27037); assay: ACtR2(AC2ALGE1) Takeda global kinase panel
[17] = target: Protein kinase C alpha type (Homo sapiens, UniProt P17252); assay: PKCalpha(PRKALGY1) Takeda global kinase panel
[18] = target: Sodium-dependent noradrenaline transporter (Homo sapiens) (UniProt P23975); conditions: Compound concentration 10.0 uM
[19] = target: Serine/threonine-protein kinase RIO2 (Homo sapiens, UniProt Q9BVS4); assay: RIOK2(RIO2LGF1) Takeda global kinase panel
[20] = target: Serine/threonine-protein kinase pim-2 (Homo sapiens, UniProt Q9P1W9); assay: Pim2(PIM2LHY1) Takeda global kinase panel
[21] = target: Serine/threonine-protein kinase TBK1 (Homo sapiens, UniProt Q9UHD2); assay: TBK1(TBK1CGF1) Takeda global kinase panel
[22] = target: Ribosomal protein S6 kinase alpha-1 (Homo sapiens, UniProt Q15418); assay: RSK1 [p90RSK(R6A2CGE1)] Takeda global kinase panel
[23] = target: Macrophage colony-stimulating factor 1 receptor (Homo sapiens, UniProt P07333); assay: FmS [CSFR(CSF1LGC1)] Takeda global kinase panel
[24] = target: Homeodomain-interacting protein kinase 4 (Homo sapiens, UniProt Q8NE63); assay: HIPK4(HIP4LHY1) Takeda global kinase panel
[25] = target: Serine/threonine-protein kinase pim-1 (Homo sapiens, UniProt P11309); assay: Pim1(PIM1LGP1) Takeda global kinase panel
[26] = target: Mitogen-activated protein kinase 11 (Homo sapiens, UniProt Q15759); assay: p38beta(MP11LGI1) Takeda global kinase panel
[27] = target: 5-hydroxytryptamine receptor 2B (Homo sapiens) (UniProt P41595); conditions: Compound concentration 10.0 uM
[28] = target: Serine/threonine-protein kinase Sgk3 (Homo sapiens, UniProt Q96BR1); assay: SGK3(SGK3LGY1) Takeda global kinase panel
[29] = target: Casein kinase I isoform epsilon (Homo sapiens, UniProt P49674); assay: CK1epsilon(CS1ELGI5) Takeda global kinase panel
[30] = target: ATP-sensitive inward rectifier potassium channel 11 (Cricetulus griseus) (UniProt A0A3L7HHE1); assay: Inhibition of Potassium Channel [KATP] at 10 µM in the Eurofins-Panlabs radioligand binding assay (Eurofins_assay_265600); conditions: Cricetinae; Compound concentration 10.0 uM
SRSF protein kinase 1 = SRSF protein kinase 1 (Homo sapiens, UniProt Q96SB4); assay: SRPK1(SRP1IHRL) Takeda global kinase panel
[31] = target: Leukocyte tyrosine kinase receptor (Homo sapiens, UniProt P29376); assay: LTK(LTK1LGF1) Takeda global kinase panel
[32] = target: Mitogen-activated protein kinase kinase kinase 12 (Homo sapiens, UniProt Q12852); assay: DLK(M312CGY1) Takeda global kinase panel
[33] = target: D(1A) dopamine receptor (Homo sapiens) (UniProt P21728); conditions: Compound concentration 10.0 uM
[34] = target: Cyclin-dependent kinase 2 (Homo sapiens, UniProt P24941); assay: CDK2(CDK2CGS1) Takeda global kinase panel
Ephrin type-B receptor 3 = Ephrin type-B receptor 3 (Homo sapiens, UniProt P54753); assay: EphB3(EPB3LGRJ) Takeda global kinase panel
Ephrin type-A receptor 7 = Ephrin type-A receptor 7 (Homo sapiens, UniProt Q15375); assay: EphA7(EPA7LGF1) Takeda global kinase panel
[35] = target: Tyrosine-protein kinase Srms (Homo sapiens, UniProt Q9H3Y6); assay: Srm(SRMSLGY1) Takeda global kinase panel
[36] = target: Serine/threonine-protein kinase Nek5 (Homo sapiens, UniProt Q6P3R8); assay: Nek5(NEK5LGRD) Takeda global kinase panel
[37] = target: Protein-tyrosine kinase 6 (Homo sapiens, UniProt Q13882); assay: Brk(PTK6LGY1) Takeda global kinase panel
[38] = target: Mu-type opioid receptor (Homo sapiens) (UniProt P35372); conditions: Compound concentration 10.0 uM
[39] = target: Myosin light chain kinase, smooth muscle (Homo sapiens, UniProt Q15746); assay: smMLCK(MYL1LGF1) Takeda global kinase panel
[40] = target: Cyclin-dependent kinase 6 (Homo sapiens, UniProt Q00534); assay: CDK6(CDK6CGS1) Takeda global kinase panel

Sequence of Dual specificity protein kinase CLK4 (Q9HAZ1 whole entry): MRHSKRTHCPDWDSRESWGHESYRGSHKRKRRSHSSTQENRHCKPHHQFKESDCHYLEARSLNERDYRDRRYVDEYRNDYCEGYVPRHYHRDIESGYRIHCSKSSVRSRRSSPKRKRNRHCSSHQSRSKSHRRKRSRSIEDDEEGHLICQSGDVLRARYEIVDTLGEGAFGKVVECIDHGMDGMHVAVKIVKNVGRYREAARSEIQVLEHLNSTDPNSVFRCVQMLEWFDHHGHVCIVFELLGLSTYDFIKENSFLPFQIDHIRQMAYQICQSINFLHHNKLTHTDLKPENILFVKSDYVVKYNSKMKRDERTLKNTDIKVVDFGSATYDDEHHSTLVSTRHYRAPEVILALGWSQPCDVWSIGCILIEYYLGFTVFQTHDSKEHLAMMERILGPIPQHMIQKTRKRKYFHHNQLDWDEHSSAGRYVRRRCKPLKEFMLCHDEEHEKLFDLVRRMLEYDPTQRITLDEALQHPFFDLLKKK
Sequence of Activin receptor type-2A (P27037 whole entry): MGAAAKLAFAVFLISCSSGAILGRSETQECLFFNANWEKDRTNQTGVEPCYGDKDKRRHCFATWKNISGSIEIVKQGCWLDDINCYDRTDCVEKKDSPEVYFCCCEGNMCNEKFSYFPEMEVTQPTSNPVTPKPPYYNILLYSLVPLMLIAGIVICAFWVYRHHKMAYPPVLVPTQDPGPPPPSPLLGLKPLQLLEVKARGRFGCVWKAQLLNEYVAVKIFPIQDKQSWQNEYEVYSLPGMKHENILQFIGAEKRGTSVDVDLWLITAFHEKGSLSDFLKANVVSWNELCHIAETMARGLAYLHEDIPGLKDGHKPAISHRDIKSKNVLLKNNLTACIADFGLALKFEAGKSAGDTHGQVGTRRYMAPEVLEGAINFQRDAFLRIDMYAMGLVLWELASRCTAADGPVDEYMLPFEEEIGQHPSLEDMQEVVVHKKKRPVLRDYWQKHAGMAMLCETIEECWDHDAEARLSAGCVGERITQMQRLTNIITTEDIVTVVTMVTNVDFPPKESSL
Sequence of Serine/threonine-protein kinase pim-1 (P11309 whole entry): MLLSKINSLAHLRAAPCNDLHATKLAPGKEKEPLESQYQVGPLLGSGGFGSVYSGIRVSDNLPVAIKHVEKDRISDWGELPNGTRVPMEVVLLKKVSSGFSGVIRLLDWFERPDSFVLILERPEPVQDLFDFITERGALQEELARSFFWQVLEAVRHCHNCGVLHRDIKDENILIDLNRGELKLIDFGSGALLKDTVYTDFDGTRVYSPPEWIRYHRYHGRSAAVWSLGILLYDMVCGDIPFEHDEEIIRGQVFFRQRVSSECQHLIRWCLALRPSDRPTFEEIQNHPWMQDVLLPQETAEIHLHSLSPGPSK
Sequence of D(1A) dopamine receptor (Homo sapiens) (P21728 whole entry): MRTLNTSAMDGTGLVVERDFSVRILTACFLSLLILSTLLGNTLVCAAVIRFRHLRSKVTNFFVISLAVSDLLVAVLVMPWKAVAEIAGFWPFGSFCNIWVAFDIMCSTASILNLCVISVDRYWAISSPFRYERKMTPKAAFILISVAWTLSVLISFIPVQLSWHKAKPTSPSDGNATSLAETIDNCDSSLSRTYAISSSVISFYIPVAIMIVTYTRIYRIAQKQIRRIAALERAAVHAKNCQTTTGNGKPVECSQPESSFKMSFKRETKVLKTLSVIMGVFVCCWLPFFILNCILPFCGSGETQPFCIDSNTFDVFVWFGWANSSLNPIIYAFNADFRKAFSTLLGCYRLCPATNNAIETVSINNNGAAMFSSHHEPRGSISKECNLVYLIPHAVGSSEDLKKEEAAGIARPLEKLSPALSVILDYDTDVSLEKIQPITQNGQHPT
Sequence of Serine/threonine-protein kinase RIO2 (Q9BVS4 whole entry): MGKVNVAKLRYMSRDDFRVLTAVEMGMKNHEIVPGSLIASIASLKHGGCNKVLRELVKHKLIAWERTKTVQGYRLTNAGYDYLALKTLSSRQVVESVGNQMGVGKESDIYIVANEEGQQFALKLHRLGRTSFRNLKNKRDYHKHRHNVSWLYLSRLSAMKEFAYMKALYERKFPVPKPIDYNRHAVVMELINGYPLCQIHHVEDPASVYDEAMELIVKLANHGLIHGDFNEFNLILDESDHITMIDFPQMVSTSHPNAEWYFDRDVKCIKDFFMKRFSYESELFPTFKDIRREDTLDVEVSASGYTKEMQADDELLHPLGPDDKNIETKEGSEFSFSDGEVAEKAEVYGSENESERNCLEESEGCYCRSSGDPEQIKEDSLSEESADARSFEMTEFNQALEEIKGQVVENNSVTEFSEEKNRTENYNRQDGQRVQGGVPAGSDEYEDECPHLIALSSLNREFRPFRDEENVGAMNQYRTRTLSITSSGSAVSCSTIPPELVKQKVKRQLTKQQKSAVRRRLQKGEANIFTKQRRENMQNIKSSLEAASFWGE
Sequence of Alpha-1B adrenergic receptor (Homo sapiens) (P35368 whole entry): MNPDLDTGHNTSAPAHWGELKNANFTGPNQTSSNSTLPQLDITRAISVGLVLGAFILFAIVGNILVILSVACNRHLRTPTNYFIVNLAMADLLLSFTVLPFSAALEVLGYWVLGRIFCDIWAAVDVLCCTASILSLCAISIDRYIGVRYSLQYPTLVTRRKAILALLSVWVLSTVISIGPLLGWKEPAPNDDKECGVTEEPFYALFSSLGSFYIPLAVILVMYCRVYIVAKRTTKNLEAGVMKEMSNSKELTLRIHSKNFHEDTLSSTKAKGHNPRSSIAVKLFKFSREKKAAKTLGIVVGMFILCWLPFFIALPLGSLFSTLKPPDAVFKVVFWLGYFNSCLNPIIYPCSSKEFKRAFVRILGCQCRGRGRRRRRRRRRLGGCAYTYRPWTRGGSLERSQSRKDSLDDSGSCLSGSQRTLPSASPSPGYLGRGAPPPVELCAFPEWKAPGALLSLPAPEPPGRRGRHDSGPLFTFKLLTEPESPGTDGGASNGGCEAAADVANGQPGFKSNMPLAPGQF
Sequence of Ribosomal protein S6 kinase alpha-5 (O75582 whole entry): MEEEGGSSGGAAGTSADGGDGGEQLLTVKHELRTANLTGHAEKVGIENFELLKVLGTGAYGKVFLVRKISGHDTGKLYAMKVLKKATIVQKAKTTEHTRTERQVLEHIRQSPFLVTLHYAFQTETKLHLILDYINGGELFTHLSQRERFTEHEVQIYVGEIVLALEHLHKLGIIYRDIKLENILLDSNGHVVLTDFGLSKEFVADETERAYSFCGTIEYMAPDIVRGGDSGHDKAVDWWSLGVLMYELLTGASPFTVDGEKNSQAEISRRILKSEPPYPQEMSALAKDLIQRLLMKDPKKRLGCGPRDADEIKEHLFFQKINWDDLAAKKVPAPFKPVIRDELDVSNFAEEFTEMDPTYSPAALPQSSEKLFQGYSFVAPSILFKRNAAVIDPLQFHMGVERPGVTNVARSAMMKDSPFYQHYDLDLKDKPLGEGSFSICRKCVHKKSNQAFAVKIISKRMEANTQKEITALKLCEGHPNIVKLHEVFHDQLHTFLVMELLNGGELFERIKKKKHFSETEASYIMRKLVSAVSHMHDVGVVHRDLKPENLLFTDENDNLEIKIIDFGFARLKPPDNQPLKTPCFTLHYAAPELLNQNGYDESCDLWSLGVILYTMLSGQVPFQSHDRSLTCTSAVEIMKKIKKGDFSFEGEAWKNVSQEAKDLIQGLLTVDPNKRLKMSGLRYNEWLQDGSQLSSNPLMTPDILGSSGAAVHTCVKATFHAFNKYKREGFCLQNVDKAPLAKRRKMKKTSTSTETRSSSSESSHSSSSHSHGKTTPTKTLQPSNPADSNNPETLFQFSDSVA
Sequence of Serine/threonine-protein kinase Sgk3 (Q96BR1 whole entry, canonical isoform): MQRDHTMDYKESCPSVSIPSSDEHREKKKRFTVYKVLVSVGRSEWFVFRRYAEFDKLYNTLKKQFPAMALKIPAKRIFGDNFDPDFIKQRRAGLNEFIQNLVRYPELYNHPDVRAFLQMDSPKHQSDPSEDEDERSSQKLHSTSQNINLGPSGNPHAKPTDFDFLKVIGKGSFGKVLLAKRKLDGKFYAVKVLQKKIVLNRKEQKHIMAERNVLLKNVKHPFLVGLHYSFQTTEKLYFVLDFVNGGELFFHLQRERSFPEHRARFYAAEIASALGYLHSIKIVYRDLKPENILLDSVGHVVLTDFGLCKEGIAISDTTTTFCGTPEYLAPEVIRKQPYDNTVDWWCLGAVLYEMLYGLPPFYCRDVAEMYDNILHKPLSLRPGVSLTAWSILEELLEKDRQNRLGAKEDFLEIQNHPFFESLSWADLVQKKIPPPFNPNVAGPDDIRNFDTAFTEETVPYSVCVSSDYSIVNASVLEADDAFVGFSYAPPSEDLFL

Compound: CN1C(=O)[C@@H](N2CCc3cn(Cc4ccccc4)nc3C2=O)COc2ccccc21 [TP-030-1]
- IC50 [1]: 1000 nM
- IC50 [2]: 1000 nM
- inhibition [3]: 3%
- IC50 [4]: 1000 nM
- IC50 [5]: 1000 nM
- IC50 [6]: 1000 nM
- IC50 [7]: 1000 nM
- IC50 [8]: 1000 nM
- IC50 [9]: 1000 nM
- inhibition [10]: 27%
- IC50 (Ephrin type-A receptor 1): 1000 nM
- IC50 [11]: 1000 nM
- IC50 [12]: 1000 nM
- IC50 [13]: 1000 nM
- IC50 (SRSF protein kinase 3): 1000 nM
- inhibition [14]: -7%
- inhibition [15]: 2%
- IC50 [16]: 1000 nM
- IC50 (Activin receptor type-2A): 1000 nM
- IC50 [17]: 1000 nM
- inhibition [18]: 15%
- IC50 [19]: 1000 nM
- IC50 [20]: 1000 nM
- IC50 [21]: 1000 nM
- IC50 [22]: 1000 nM
- IC50 [23]: 1000 nM
- IC50 [24]: 1000 nM
- IC50 [25]: 1000 nM
- IC50 [26]: 1000 nM
- inhibition [27]: 6%
- IC50 [28]: 1000 nM
- IC50 [29]: 1000 nM
- inhibition [30]: 6%
- IC50 (SRSF protein kinase 1): 1000 nM
- IC50 [31]: 1000 nM
- IC50 [32]: 1000 nM
- inhibition [33]: -4%
- IC50 [34]: 1000 nM
- IC50 (Ephrin type-B receptor 3): 1000 nM
- IC50 (Ephrin type-A receptor 7): 1000 nM
- IC50 [35]: 1000 nM
- IC50 [36]: 1000 nM
- IC50 [37]: 1000 nM
- inhibition [38]: 19%
- IC50 [39]: 1000 nM
- IC50 [40]: 1000 nM

Compound: CN1C(=O)[C@@H](N2CCc3cn(CC4CCS(=O)(=O)CC4)nc3C2=O)COc2ccccc21 [TP-030n]
- IC50 [1]: 1000 nM
- IC50 [2]: 1000 nM
- inhibition [3]: 3%
- IC50 [4]: 1000 nM
- IC50 [5]: 1000 nM
- IC50 [6]: 1000 nM
- IC50 [7]: 1000 nM
- IC50 [8]: 1000 nM
- IC50 [9]: 1000 nM
- inhibition [10]: 11%
- IC50 (Ephrin type-A receptor 1): 1000 nM
- IC50 [11]: 1000 nM
- IC50 [12]: 1000 nM
- IC50 [13]: 1000 nM
- IC50 (SRSF protein kinase 3): 1000 nM
- inhibition [14]: -9%
- inhibition [15]: 1%
- IC50 [16]: 1000 nM
- IC50 (Activin receptor type-2A): 1000 nM
- IC50 [17]: 1000 nM
- inhibition [18]: 3%
- IC50 [19]: 1000 nM
- IC50 [20]: 1000 nM
- IC50 [21]: 1000 nM
- IC50 [22]: 1000 nM
- IC50 [23]: 1000 nM
- IC50 [24]: 1000 nM
- IC50 [25]: 1000 nM
- IC50 [26]: 1000 nM
- inhibition [27]: -2%
- IC50 [28]: 1000 nM
- IC50 [29]: 1000 nM
- inhibition [30]: 5%
- IC50 (SRSF protein kinase 1): 1000 nM
- IC50 [31]: 1000 nM
- IC50 [32]: 1000 nM
- inhibition [33]: 7%
- IC50 [34]: 1000 nM
- IC50 (Ephrin type-B receptor 3): 1000 nM
- IC50 (Ephrin type-A receptor 7): 1000 nM
- IC50 [35]: 1000 nM
- IC50 [36]: 1000 nM
- IC50 [37]: 1000 nM
- inhibition [38]: 4%
- IC50 [39]: 1000 nM
- IC50 [40]: 1000 nM
